The compounds below were run against IDH2 R140Q (Homo sapiens (Human), UniProt P48735, R140Q) (assay: IDH2 R140Q enzymatic cofactor depletion assay (diaphorase/resazurin)). Details: IDH2 R140Q enzyme, one hour preincubation with compound, one hour reaction; read-out: Enz R140Q.
Format: biochemical
In short: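 Enzyme preincubated with compound 1 h at room temperature, then reaction started with 50 μM NADPH and 6.3 mM α-KG and run 1 h at room temperature. Remaining NADPH measured by diaphorase (36 μg/ml)/resazurin (60 μM) stop mix, fluorescence read at Ex544/Em590 after 1 min.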

Chain of IDH2 R140Q (P48735 40-452 R140Q): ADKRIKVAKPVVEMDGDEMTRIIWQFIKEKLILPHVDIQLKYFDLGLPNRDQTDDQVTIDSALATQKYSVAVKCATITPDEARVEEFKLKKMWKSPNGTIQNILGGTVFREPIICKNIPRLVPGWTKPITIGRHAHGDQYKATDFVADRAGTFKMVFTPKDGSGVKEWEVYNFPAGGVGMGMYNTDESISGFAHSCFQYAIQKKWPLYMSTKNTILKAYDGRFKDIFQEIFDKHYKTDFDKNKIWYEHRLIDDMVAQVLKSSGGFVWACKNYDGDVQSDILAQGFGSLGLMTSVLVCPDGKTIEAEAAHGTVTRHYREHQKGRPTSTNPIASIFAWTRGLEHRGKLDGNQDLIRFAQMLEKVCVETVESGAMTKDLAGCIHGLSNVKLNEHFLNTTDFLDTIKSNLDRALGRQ

Row | IC50 [nM] | SMILES
1 | 100 to 1000 | O=C(Nc1ccc(F)c(C(F)(F)F)c1)Nc1cc(S(=O)(=O)NCC(F)(F)F)ccc1C1CCCCO1 (centres unmarked) [Compound 167, 3-(3-(4-fluoro-3-(trifluoromethyl)phenyl)ureido)-4-(tetrahydro-2H-pyran-2-yl)-N-(2,2,2-trifluoroethyl)benzenesulfonamide]
2 | 100 to 1000 | O=C(Nc1cccc(C(F)(F)F)c1)Nc1cc(S(=O)(=O)Nc2ccccc2)ccc1C1CCCCO1 (centres unmarked) [Compound 170, N-phenyl-4-(tetrahydro-2H-pyran-2-yl)-3-(3-(3-(trifluoromethyl)phenyl)ureido)benzenesulfonamide]
3 | 1000 to 10000 | O=C(Nc1cc(C(F)(F)F)ccn1)Nc1cc(S(=O)(=O)NCC(F)(F)F)ccc1C1CCCO1 (centres unmarked) [Compound 174, 4-(tetrahydrofuran-2-yl)-N-(2,2,2-trifluoroethyl)-3-(3-(4-(trifluoromethyl)pyridin-2-yl)ureido)benzene sulfonamide]
4 | 100 to 1000 | O=C(Nc1cccc(C(F)(F)F)c1)Nc1cc(S(=O)(=O)NCC(F)(F)F)ccc1OCC1CCCO1 (centres unmarked) [Compound 176, 4-((tetrahydrofuran-2-yl)methoxy)-N-(2,2,2-trifluoroethyl)-3-(3-(3-(trifluoromethyl)phenyl)ureido)benzenesulfonamide]
5 | < 100 | CCOc1ccc(S(=O)(=O)NCC(F)(F)F)cc1NC(=O)Nc1cccc(C(F)(F)F)c1 [Compound 177, 4-ethoxy-N-(2,2,2-trifluoroethyl)-3-(3-(3-(trifluoromethyl)phenyl)ureido)benzenesulfonamide]
6 | 100 to 1000 | N#CC1(NS(=O)(=O)c2ccc(OCC3CC3)c(NC(=O)Nc3cccc(C(F)(F)F)c3)c2)CC1 [Compound 179, N-(1-cyanocyclopropyl)-4-(cyclopropylmethoxy)-3-(3-(3-(trifluoromethyl)phenyl)ureido)benzene sulfonamide]
7 | 100 to 1000 | O=C(Nc1cccc(C(F)(F)F)c1)Nc1cc(S(=O)(=O)NC2COC2)ccc1OCC1CC1 [Compound 183, 4-(cyclopropylmethoxy)-N-(oxetan-3-yl)-3-(3-(3-(trifluoromethyl)phenyl)ureido)benzenesulfonamide]
8 | 100 to 1000 | CC(C)Oc1ccc(S(=O)(=O)NCC(F)(F)F)cc1NC(=O)Nc1cccc(C(F)(F)F)c1 [Compound 185, 4-isopropoxy-N-(2,2,2-trifluoroethyl)-3-(3-(3-(trifluoromethyl)phenyl)ureido)benzenesulfonamide]
9 | 100 to 1000 | O=C(Nc1cccc(C(F)(F)F)c1)Nc1cc(S(=O)(=O)NCC(F)(F)F)ccc1Oc1cccnc1 [Compound 186, 4-(pyridin-3-yloxy)-N-(2,2,2-trifluoroethyl)-3-(3-(3-(trifluoromethyl)phenyl)ureido)benzenesulfonamide]
10 | 100 to 1000 | O=C(Nc1ncc(Cl)s1)Nc1cc(S(=O)(=O)NCC(F)(F)F)ccc1OCC1CC1 [Compound 187, 3-(3-(5-chlorothiazol-2-yl)ureido)-4-(cyclopropylmethoxy)-N-(2,2,2-trifluoroethyl)benzenesulfonamide]
11 | 100 to 1000 | CCOc1ccc(S(=O)(=O)NCC(F)(F)F)cc1NC(=O)Nc1ncc(Cl)s1 [Compound 191, 3-(3-(5-chlorothiazol-2-yl)ureido)-4-ethoxy-N-(2,2,2-trifluoroethyl)benzenesulfonamide]
12 | 100 to 1000 | O=C(Nc1cccc(C(F)(F)F)c1)Nc1cc(S(=O)(=O)Nc2ccccc2)ccc1Oc1ccccc1 [Compound 192, 4-phenoxy-N-phenyl-3-(3-(3-(trifluoromethyl)phenyl)ureido)benzenesulfonamide]

Further lines, the compound ahead of its results:

Row | SMILES | IC50 [nM]
13 | O=C(Nc1cccc(Cl)c1)Nc1cc(S(=O)(=O)NCC(F)(F)F)ccc1C1CCCCO1 (centres unmarked) [Compound 168, 3-(3-(3-chlorophenyl)ureido)-4-(tetrahydro-2H-pyran-2-yl)-N-(2,2,2-trifluoroethyl)benzenesulfonamide] | 100 to 1000
14 | O=C(Nc1ncc(Cl)s1)Nc1cc(S(=O)(=O)NCC(F)(F)F)ccc1C1CCCCO1 (centres unmarked) [Compound 169, 3-(3-(5-chlorothiazol-2-yl)ureido)-4-(tetrahydro-2H-pyran-2-yl)-N-(2,2,2-trifluoroethyl)benzene sulfonamide] | 100 to 1000
15 | O=C(Nc1ncc(Cl)s1)Nc1cc(S(=O)(=O)NCC(F)(F)F)ccc1C1CCOC1 (centres unmarked) [Compound 172, 3-(3-(5-chlorothiazol-2-yl)ureido)-4-(tetrahydrofuran-3-yl)-N-(2,2,2-trifluoroethyl)benzene sulfonamide] | 1000 to 10000
16 | O=C(Nc1cccc(C(F)(F)F)c1)Nc1cc(S(=O)(=O)NCC(F)(F)F)ccc1C1CCCO1 (centres unmarked) [Compound 173, 4-(tetrahydrofuran-2-yl)-N-(2,2,2-trifluoroethyl)-3-(3-(3-(trifluoromethyl)phenyl)ureido)benzene sulfonamide] | 100 to 1000
17 | O=C(Nc1cccc(C(F)(F)F)c1)Nc1cc(S(=O)(=O)NCC(F)(F)F)ccc1OCC1CC1 [Compound 175, 4-(cyclopropylmethoxy)-N-(2,2,2-trifluoroethyl)-3-(3-(3-(trifluoromethyl)phenyl)ureido)benzenesulfonamide] | 100 to 1000
18 | O=C(Nc1cccc(C(F)(F)F)c1)Nc1cc(S(=O)(=O)NCC(F)(F)F)ccc1OC1CCOCC1 [Compound 178, 4-((tetrahydro-2H-pyran-4-yl)oxy)-N-(2,2,2-trifluoroethyl)-3-(3-(3-(trifluoromethyl)phenyl)ureido)benzenesulfonamide] | 100 to 1000
19 | CCOc1ccc(S(=O)(=O)NC2COC2)cc1NC(=O)Nc1cccc(C(F)(F)F)c1 [Compound 180, 4-ethoxy-N-(oxetan-3-yl)-3-(3-(3-(trifluoromethyl)phenyl)ureido)benzenesulfonamide] | 100 to 1000
20 | CCOc1ccc(S(=O)(=O)NC2(C#N)CC2)cc1NC(=O)Nc1cccc(C(F)(F)F)c1 [Compound 181, N-(1-cyanocyclopropyl)-4-ethoxy-3-(3-(3-(trifluoromethyl)phenyl)ureido)benzenesulfonamide] | 100 to 1000
21 | O=C(Nc1cccc(C(F)(F)F)c1)Nc1cc(S(=O)(=O)NCC(F)(F)F)ccc1OCC1CCOC1 (centres unmarked) [Compound 184, 4-((tetrahydrofuran-3-yl)methoxy)-N-(2,2,2-trifluoroethyl)-3-(3-(3-(trifluoromethyl)phenyl)ureido)benzenesulfonamide] | 100 to 1000
22 | O=C(Nc1ccc(F)cc1F)Nc1cc(S(=O)(=O)NCC(F)(F)F)ccc1OCC1CC1 [Compound 188, 4-(cyclopropylmethoxy)-3-(3-(2,4-difluorophenyl)ureido)-N-(2,2,2-trifluoroethyl)benzenesulfonamide] | 100 to 1000
23 | O=C(Nc1cc(C(F)(F)F)ccn1)Nc1cc(S(=O)(=O)NCC(F)(F)F)ccc1OCC1CC1 [Compound 189, 4-(cyclopropylmethoxy)-N-(2,2,2-trifluoroethyl)-3-(3-(4-(trifluoromethyl)pyridin-2-yl)ureido)benzene sulfonamide] | 100 to 1000
24 | CCOc1ccc(S(=O)(=O)NCC(F)(F)F)cc1NC(=O)Nc1cc(C(F)(F)F)ccn1 [Compound 190, 4-ethoxy-N-(2,2,2-trifluoroethyl)-3-(3-(4-(trifluoromethyl)pyridin-2-yl)ureido)benzenesulfonamide] | 100 to 1000
25 | O=C(Nc1cccc(C(F)(F)F)c1)Nc1cc(S(=O)(=O)NC2CC2)ccc1OCc1ccccc1 [Compound 193] | 1000 to 10000
26 | CC[S+]([O-])c1ccc(S(=O)(=O)NCC(F)(F)F)cc1NC(=O)Nc1cccc(C(F)(F)F)c1 (centres unmarked) [Compound 195, 4-(ethylsulfinyl)-N-(2,2,2-trifluoroethyl)-3-(3-(3-(trifluoromethyl)phenyl)ureido)benzenesulfonamide] | 100 to 1000

— US10202339B2, “Therapeutic compounds and compositions” (AGIOS PHARMACEUTICALS, INC., priority 2012, dated 2019)
